Experimental findings from patent publication US4877893A, “Process for the preparation of 2-(O-alkyl)-2-thio-1,3,2-oxathiophospholanes” (priority 1987, dated 1989) are described below.

Molecules are shown by their SMILES.

Common to all, as to test: Fungicidal effect on infected agar nutrient media, colony diameter
Type in all cases: cell-based

One experiment relates to Sclerotinia sclerotinia. As to conditions: 3rd day after treatment, untreated control 41.7. The procedure:
Agar nutrient media (Diameter 70 MM, thickness 10 mm) infected by Sclerotonia sclerotinia suspension are treated with 20 EC formulations prepared according to Example 27 and comprising 1, 10, 100 and 1000 ppm, respectively of the active ingredient of the Formula I. The fungicidal effect of the compositions is evaluated on the 3rd day after treatment by measuring the diameter of the Fungi colonies.

The subject of the next experiment is Penicillium cyclopium. Particulars: 7th day after treatment, untreated 26.5. An outline of the steps:
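Agar media (70 mm diameter, 10 mm thick) infected with Penicillium cyclopium were treated with EC formulations at 1, 10, 100 and 1000 ppm active ingredient. Fungal colony diameter was measured on day 7 after treatment.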

The next experiment concerns Alternaria tenuis. As to conditions: 5th day after treatment, untreated control 36.8. An outline of the steps: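 Agar media (70 mm diameter, 10 mm thick) infected with Alternaria tenuis, treated with EC formulations at 1, 10, 100 and 1000 ppm active ingredient. Fungicidal effect read on day 5 after treatment as fungal colony diameter.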

On to `CC(Cl)C(C)OP1(=S)OC(C)C(C)S1` (stereo not drawn) [Compound 43, 2-(0-1',2'-dimethyl-2'-chloroethyl)-2-thio-4,5-dimethyl-1,3,2-oxathiophospholane], for which the “Diameter of colony (mm)” value in the experiment with Sclerotinia sclerotinia (1 ppm) worked out at 37.6 mm; in the experiment on Sclerotinia sclerotinia (10 ppm), 28.2 mm; in the experiment with Sclerotinia sclerotinia (100 ppm) it was 2.4 mm; with Sclerotinia sclerotinia (1000 ppm), 0 mm; in the experiment on Penicillium cyclopium (1 ppm) it was 25.2 mm; in the experiment with Penicillium cyclopium (10 ppm), 18.4 mm. In addition, the “Diameter of colony (mm)” value in the experiment on Penicillium cyclopium (100 ppm) worked out at 6.3 mm; with Penicillium cyclopium (1000 ppm), 0 mm; with Alternaria tenuis (1 ppm), 32.4 mm; in the experiment on Alternaria tenuis (10 ppm), 23.3 mm; with Alternaria tenuis (100 ppm), 6.2 mm; in the experiment on Alternaria tenuis (1000 ppm) it was 0 mm.

`CC(Br)C(C)OP1(=S)OC(C)C(C)S1` (stereo not drawn) [Compound 44]: the “Diameter of colony (mm)” value in the experiment with Sclerotinia sclerotinia (1 ppm) is recorded as 35.4 mm; with Sclerotinia sclerotinia (10 ppm), 28.1 mm; in the experiment with Sclerotinia sclerotinia (100 ppm) it was 4.0 mm; with Sclerotinia sclerotinia (1000 ppm) it was 0 mm; in the experiment with Penicillium cyclopium (1 ppm), 17.9 mm; in the experiment on Penicillium cyclopium (10 ppm) it was 17.1 mm. In addition, the “Diameter of colony (mm)” value in the experiment on Penicillium cyclopium (100 ppm) was 5.1 mm; in the experiment with Penicillium cyclopium (1000 ppm), 0 mm; in the experiment on Alternaria tenuis (1 ppm) it was 33.5 mm; in the experiment on Alternaria tenuis (10 ppm) it was 26.2 mm; in the experiment on Alternaria tenuis (100 ppm), 7.0 mm; in the experiment on Alternaria tenuis (1000 ppm), 0 mm.

Turning to `CC(I)C(C)OP1(=S)OC(C)C(C)S1` (stereo not drawn) [Compound 45], the “Diameter of colony (mm)” value with Sclerotinia sclerotinia (1 ppm) came out at 39.2 mm; with Sclerotinia sclerotinia (10 ppm) it was 30.0 mm; in the experiment on Sclerotinia sclerotinia (100 ppm), 1.6 mm; in the experiment on Sclerotinia sclerotinia (1000 ppm) it was 0 mm; in the experiment on Penicillium cyclopium (1 ppm), 24.2 mm; with Penicillium cyclopium (10 ppm), 15.5 mm. The “Diameter of colony (mm)” value is 6.0 mm in the experiment on Penicillium cyclopium (100 ppm); 0 mm in the experiment with Penicillium cyclopium (1000 ppm); 34.0 mm in the experiment on Alternaria tenuis (1 ppm); 20.4 mm in the experiment on Alternaria tenuis (10 ppm); 5.7 mm in the experiment on Alternaria tenuis (100 ppm); 0 mm in the experiment on Alternaria tenuis (1000 ppm).

On to `CCCOP1(=S)OCCS1` (stereo not drawn) [Compound 46, 2-(0-n-propyl)-2-thio-1,3,2-oxathiophospholane], for which the “Diameter of colony (mm)” value in the experiment on Sclerotinia sclerotinia (1 ppm) was 34.6 mm; with Sclerotinia sclerotinia (10 ppm), 28.7 mm; with Sclerotinia sclerotinia (100 ppm), 4.2 mm; with Sclerotinia sclerotinia (1000 ppm), 0 mm; in the experiment with Penicillium cyclopium (1 ppm), 25.1 mm; in the experiment on Penicillium cyclopium (10 ppm), 18.9 mm. The “Diameter of colony (mm)” value amounted to 7.9 mm in the experiment with Penicillium cyclopium (100 ppm); 0 mm with Penicillium cyclopium (1000 ppm); 34.2 mm in the experiment on Alternaria tenuis (1 ppm); 24.3 mm in the experiment with Alternaria tenuis (10 ppm); 5.8 mm in the experiment on Alternaria tenuis (100 ppm); 0 mm in the experiment with Alternaria tenuis (1000 ppm).

Consider `CCCOP1(=S)OC(C)CS1` (stereo not drawn) [Compound 47, 2-(0-n-propyl)-2-thio-5-methyl-1,3,2-oxathiophospholane], for which the “Diameter of colony (mm)” value in the experiment on Sclerotinia sclerotinia (1 ppm) worked out at 33.9 mm; in the experiment on Sclerotinia sclerotinia (10 ppm), 30.2 mm; with Sclerotinia sclerotinia (100 ppm), 3.9 mm; in the experiment on Sclerotinia sclerotinia (1000 ppm), 0 mm; in the experiment with Penicillium cyclopium (1 ppm), 23.8 mm; in the experiment with Penicillium cyclopium (10 ppm) it was 20.1 mm. Besides, the “Diameter of colony (mm)” value with Penicillium cyclopium (100 ppm) was 8.3 mm; in the experiment on Penicillium cyclopium (1000 ppm), 0 mm; in the experiment with Alternaria tenuis (1 ppm) it was 33.5 mm; in the experiment on Alternaria tenuis (10 ppm), 25.7 mm; in the experiment on Alternaria tenuis (100 ppm), 7.0 mm; with Alternaria tenuis (1000 ppm), 0 mm.

For the molecule `CCCOP1(=S)OCC(C)S1` (stereo not drawn) [Compound 48, 2-(0-n-propyl)-2-thio-4-methyl-1,3,2-oxathiophospholane], the “Diameter of colony (mm)” value in the experiment on Sclerotinia sclerotinia (1 ppm) was determined as 35.8 mm; in the experiment with Sclerotinia sclerotinia (10 ppm), 29.1 mm; in the experiment with Sclerotinia sclerotinia (100 ppm), 2.8 mm; with Sclerotinia sclerotinia (1000 ppm), 0 mm; with Penicillium cyclopium (1 ppm), 24.2 mm; in the experiment on Penicillium cyclopium (10 ppm), 19.2 mm. Further, the “Diameter of colony (mm)” value in the experiment on Penicillium cyclopium (100 ppm) is on record as 8.5 mm; in the experiment on Penicillium cyclopium (1000 ppm), 0 mm; in the experiment on Alternaria tenuis (1 ppm), 36.1 mm; in the experiment with Alternaria tenuis (10 ppm), 24.6 mm; in the experiment on Alternaria tenuis (100 ppm), 6.3 mm; with Alternaria tenuis (1000 ppm) it was 0 mm.

Take `CCC(C)OP1(=S)OCCS1` (stereo not drawn) [Compound 49]: the “Diameter of colony (mm)” value with Sclerotinia sclerotinia (1 ppm) is 37.2 mm; in the experiment with Sclerotinia sclerotinia (10 ppm), 30.4 mm; in the experiment with Sclerotinia sclerotinia (100 ppm), 4.0 mm; in the experiment with Sclerotinia sclerotinia (1000 ppm), 0 mm; with Penicillium cyclopium (1 ppm), 26.3 mm; with Penicillium cyclopium (10 ppm), 20.3 mm. Further, the “Diameter of colony (mm)” value in the experiment on Penicillium cyclopium (100 ppm) amounted to 7.5 mm; in the experiment with Penicillium cyclopium (1000 ppm) it was 0 mm; in the experiment on Alternaria tenuis (1 ppm), 34.3 mm; in the experiment on Alternaria tenuis (10 ppm), 25.9 mm; in the experiment with Alternaria tenuis (100 ppm) it was 7.0 mm; in the experiment on Alternaria tenuis (1000 ppm), 0 mm.

On to `CC(C)COP1(=S)OCCS1` (stereo not drawn) [Compound 50, 2-(0-2'-methyl-n-propyl)-2-thio-1,3,2-oxathiophospholane], for which the “Diameter of colony (mm)” value in the experiment with Sclerotinia sclerotinia (1 ppm) came out at 36.5 mm; with Sclerotinia sclerotinia (10 ppm) it was 29.7 mm; in the experiment on Sclerotinia sclerotinia (100 ppm), 3.7 mm; in the experiment on Sclerotinia sclerotinia (1000 ppm), 0 mm; in the experiment with Penicillium cyclopium (1 ppm), 25.1 mm; with Penicillium cyclopium (10 ppm), 19.2 mm. Besides, the “Diameter of colony (mm)” value with Penicillium cyclopium (100 ppm) is reported as 7.7 mm; with Penicillium cyclopium (1000 ppm), 0 mm; with Alternaria tenuis (1 ppm), 35.2 mm; in the experiment with Alternaria tenuis (10 ppm), 23.8 mm; in the experiment with Alternaria tenuis (100 ppm) it was 5.3 mm; with Alternaria tenuis (1000 ppm), 0 mm.

With `CCCOP1(=S)OCC(CC)S1` (stereo not drawn) [Compound 51, 2-(0-n-propyl)-2-thio-4-ethyl-1,3,2-oxathiophospholane], the “Diameter of colony (mm)” value in the experiment on Sclerotinia sclerotinia (1 ppm) amounted to 34.3 mm; in the experiment on Sclerotinia sclerotinia (10 ppm) it was 30.0 mm; with Sclerotinia sclerotinia (100 ppm), 3.2 mm; in the experiment on Sclerotinia sclerotinia (1000 ppm), 0 mm; in the experiment on Penicillium cyclopium (1 ppm), 24.9 mm; in the experiment on Penicillium cyclopium (10 ppm), 18.7 mm. For the same molecule, the “Diameter of colony (mm)” value in the experiment on Penicillium cyclopium (100 ppm) is reported as 8.2 mm; in the experiment with Penicillium cyclopium (1000 ppm), 0 mm; in the experiment on Alternaria tenuis (1 ppm), 35.1 mm; with Alternaria tenuis (10 ppm) it was 24.3 mm; with Alternaria tenuis (100 ppm) it was 6.9 mm; in the experiment with Alternaria tenuis (1000 ppm) it was 0 mm.

For `CC(C)COP1(=S)OC(C)CS1` (stereo not drawn) [Compound 52, 2-(0-2'-methyl-n-propyI)-2-thio-5-methyl-1,3,2-oxathiophospholane], the “Diameter of colony (mm)” value in the experiment with Sclerotinia sclerotinia (1 ppm) is 37.1 mm; in the experiment with Sclerotinia sclerotinia (10 ppm) it was 28.6 mm; in the experiment on Sclerotinia sclerotinia (100 ppm), 3.0 mm; with Sclerotinia sclerotinia (1000 ppm), 0 mm; in the experiment with Penicillium cyclopium (1 ppm) it was 26.2 mm; with Penicillium cyclopium (10 ppm), 20.0 mm. Further, the “Diameter of colony (mm)” value in the experiment on Penicillium cyclopium (100 ppm) came to 8.8 mm; in the experiment with Penicillium cyclopium (1000 ppm) it was 0 mm; with Alternaria tenuis (1 ppm), 34.8 mm; with Alternaria tenuis (10 ppm), 26.2 mm; with Alternaria tenuis (100 ppm), 4.7 mm; in the experiment with Alternaria tenuis (1000 ppm), 0 mm.

For `CCC(C)OP1(=S)OC(C)C(C)S1` (stereo not drawn) [Compound 53, 2-(0-1'-methyl-n-propyl)-2-thio-4,5-dimethyl1,3,2-oxathiophospholane], the “Diameter of colony (mm)” value with Sclerotinia sclerotinia (1 ppm) was 35.8 mm; with Sclerotinia sclerotinia (10 ppm) it was 30.0 mm; in the experiment on Sclerotinia sclerotinia (100 ppm), 3.8 mm; in the experiment on Sclerotinia sclerotinia (1000 ppm) it was 0 mm; with Penicillium cyclopium (1 ppm), 24.8 mm; in the experiment on Penicillium cyclopium (10 ppm) it was 19.2 mm. Besides, the “Diameter of colony (mm)” value in the experiment on Penicillium cyclopium (100 ppm) is given as 7.6 mm; in the experiment with Penicillium cyclopium (1000 ppm) it was 0 mm; with Alternaria tenuis (1 ppm) it was 33.9 mm; in the experiment with Alternaria tenuis (10 ppm), 25.4 mm; in the experiment with Alternaria tenuis (100 ppm), 6.6 mm; in the experiment with Alternaria tenuis (1000 ppm) it was 0 mm.

For the molecule `CC(C)C(C)OP1(=S)OC(C)C(C)S1` (stereo not drawn) [Compound 54, 2-(0-1',2'-dimethyl-n-propyl)-2-thio-4,5-dimethyl1,3,2-oxathiophospholane], the “Diameter of colony (mm)” value came to 34.9 mm with Sclerotinia sclerotinia (1 ppm); 29.0 mm with Sclerotinia sclerotinia (10 ppm); 4.1 mm in the experiment with Sclerotinia sclerotinia (100 ppm); 0 mm in the experiment with Sclerotinia sclerotinia (1000 ppm); 25.2 mm with Penicillium cyclopium (1 ppm); 18.8 mm in the experiment on Penicillium cyclopium (10 ppm). Also, the “Diameter of colony (mm)” value in the experiment on Penicillium cyclopium (100 ppm) worked out at 7.9 mm; with Penicillium cyclopium (1000 ppm), 0 mm; in the experiment on Alternaria tenuis (1 ppm), 34.7 mm; in the experiment on Alternaria tenuis (10 ppm), 24.6 mm; with Alternaria tenuis (100 ppm), 7.2 mm; in the experiment with Alternaria tenuis (1000 ppm), 0 mm.
